The test system of test [1] is BV2 (mouse microglia) cell line. As to the kind of experiment: pHrodo-myelin phagocytosis/cell viability high content imaging assay: viability (cell count, nuclear area, nuclear intensity). Conditions: 48 hours treatment. Put shortly:
(§1)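 10 μM single dose, 48 h total; pHrodo-myelin present final 20 h. Read-out: automated imaging, total cell count/well, mean nuclear intensity/cell. n=2, normalized to untreated wells, % control.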

Test [2] relates to HMC3 (human microglia) cell line. The description is as above. Particulars: 48 hours treatment. The gist of the method: as §1
The subject of test [3] is BV2 (mouse microglia) cell line. As to the kind of experiment: pHrodo-myelin phagocytosis/cell viability high content imaging assay: phagocytosis signal. The test is classed as cell-based. The gist of the method:
(§2)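 Simultaneous phagocytosis/viability imaging at approximately 22 h after adding pHrodo-myelin. Rising intensity flagged early apoptosis and falling intensity later apoptosis.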

In test [4] the test system is HMC3 (human microglia) cell line. Described as above. Format: cell-based. Put shortly: as §2
The mark [5] stands for this setting: BV2 cells, 10 uM compound, 48 hours treatment, pHrodo-myelin final 20 hours.
The mark [6] stands for this setting: HMC3 cells, 10 uM compound, 48 hours treatment, pHrodo-myelin final 20 hours.
The mark [7] stands for this setting: BV2, compound 10 uM, pHrodo-myelin.
Where [8] appears, read: HMC3, compound 10 uM, pHrodo-myelin.

Data on 7 compounds can be found in publication PMC9019904, “AD Informer Set: Chemical tools to facilitate Alzheimer's disease drug discovery” (Alzheimer's & Dementia : Translational Research & Clinical …, 2022).

Structures are written as SMILES.

Consider `C[C@]12C=CC(=O)C=C1CC[C@@H]1[C@@H]2[C@@H](O)C[C@@]2(C)[C@H]1CC[C@]2(O)C(=O)CO` [UNC10240227A], for which, in test [1] (BV2 cells, 10 uM compound), the “1. Cell count (% control)” value is 107.8 % control, the “2. Nuclear Area (% Control)” value was 102.9 % Control and the “3. Nuclear DNA Intensity (% control)” value is listed as 105.7 % control. Further, in test [2] (HMC3 cells, 10 uM compound), the “1. Cell count (% control)” value is listed as 161.9 % control, the “2. Nuclear Area (% Control)” value turned out to be 102.8 % Control and the “3. Nuclear DNA Intensity (% control)” value is recorded as 82.5 % control. The “4. Phagocytosis (% control)” value in test [3] (setting [5]) was found to be 126.6 % control. Also, the “4. Phagocytosis (% control)” value in test [4] (setting [6]) is listed as 79.4 % control.

For the compound `CCc1ccc(CCOc2ccc(CC3SC(=O)NC3=O)cc2)nc1.Cl` (centres unmarked) [UNC10240376D], in test [1] (BV2 cells, 10 uM compound), the “1. Cell count (% control)” value is listed as 113.0 % control, the “2. Nuclear Area (% Control)” value is given as 109.1 % Control and the “3. Nuclear DNA Intensity (% control)” value is listed as 109.5 % control. In test [2] (HMC3 cells, 10 uM compound), the “1. Cell count (% control)” value worked out at 140.5 % control, the “2. Nuclear Area (% Control)” value was determined as 99.5 % Control and the “3. Nuclear DNA Intensity (% control)” value worked out at 91.5 % control. The “4. Phagocytosis (% control)” value in test [3] (setting [5]) is 139.3 % control. Besides, the “4. Phagocytosis (% control)” value in test [4] (setting [6]) is on record as 81.1 % control.

On to `C[C@@H]1O[C@@H](O[C@H]2[C@H](Oc3cc(O)c4c(c3)O[C@H](c3ccc(O)cc3)CC4=O)O[C@H](CO)[C@@H](O)[C@@H]2O)[C@H](O)[C@H](O)[C@H]1O` [UNC10242153A], for which, in test [1] (BV2 cells, 10 uM compound), the “1. Cell count (% control)” value was 113.5 % control, the “2. Nuclear Area (% Control)” value turned out to be 104.9 % Control and the “3. Nuclear DNA Intensity (% control)” value is given as 98.8 % control. Moreover, in test [2] (HMC3 cells, 10 uM compound), the “1. Cell count (% control)” value is 139.8 % control, the “2. Nuclear Area (% Control)” value is 102.9 % Control and the “3. Nuclear DNA Intensity (% control)” value is on record as 93.8 % control. Moreover, the “4. Phagocytosis (% control)” value in test [3] (setting [5]) turned out to be 167.6 % control. For the same compound, in test [4] (setting [6]), the “4. Phagocytosis (% control)” value was determined as 65.7 % control.

`Cc1cc(Nc2ncc(Cl)c(Nc3ccccc3S(=O)(=O)C(C)C)n2)c(OC(C)C)cc1C1CCNCC1` [UNC10244729A]: the “1. Cell count (% control)” value amounted to 19.2 % control in test [1] (BV2 cells, 10 uM compound) and 28.7 % control in test [2] (HMC3 cells, 10 uM compound). Moreover, the “2. Nuclear Area (% Control)” value in test [1] (BV2 cells, 10 uM compound) was 92.5 % Control; in test [2] (HMC3 cells, 10 uM compound), 60.3 % Control. The “3. Nuclear DNA Intensity (% control)” value is given as 49.1 % control in test [1] (BV2 cells, 10 uM compound) and 155.5 % control in test [2] (HMC3 cells, 10 uM compound). Moreover, the entries for the “4. Phagocytosis (% control)” value in test [3] (setting [5]) and in test [4] (setting [6]) were 0.00122 % control and 0.00248 % control, respectively.

With `COc1cc(N2CCC(N3CCN(C)CC3)CC2)ccc1Nc1ncc(Cl)c(Nc2ccccc2P(C)(C)=O)n1` [UNC10244797A], the “1. Cell count (% control)” value stood at 44.4 % control in test [1] (BV2, compound 10 uM) and 103.9 % control in test [2] (HMC3, compound 10 uM). Besides, the “2. Nuclear Area (% Control)” value in test [1] (BV2, compound 10 uM) was 109.2 % Control; in test [2] (HMC3, compound 10 uM), 120.2 % Control. Besides, the “3. Nuclear DNA Intensity (% control)” value in test [1] (BV2, compound 10 uM) came to 111.1 % control; in test [2] (HMC3, compound 10 uM), 97.2 % control. The “4. Phagocytosis (% control)” value in test [3] (setting [7]) worked out at 236.8 % control; in test [4] (setting [8]), 99.4 % control.

In the case of `C[C@H]1Oc2cc(cnc2N)-c2c(nn(C)c2C#N)CN(C)C(=O)c2ccc(F)cc21` [UNC10244898A], the “1. Cell count (% control)” value in test [1] (BV2 cells, 10 uM compound) is listed as 117.2 % control; in test [2] (HMC3 cells, 10 uM compound), 127.2 % control. The “2. Nuclear Area (% Control)” value in test [1] (BV2 cells, 10 uM compound) is listed as 102.7 % Control; in test [2] (HMC3 cells, 10 uM compound) it was 110.3 % Control. For the same compound, the “3. Nuclear DNA Intensity (% control)” value stood at 110.1 % control in test [1] (BV2 cells, 10 uM compound) and 89.2 % control in test [2] (HMC3 cells, 10 uM compound). Moreover, the “4. Phagocytosis (% control)” value turned out to be 200.3 % control in test [3] (setting [5]) and 37.8 % control in test [4] (setting [6]).

As for `CCc1cc2c(cc1N1CCC(N3CCOCC3)CC1)C(C)(C)c1[nH]c3cc(C#N)ccc3c1C2=O` [UNC10245077A], in test [1] (BV2, compound 10 uM), the “1. Cell count (% control)” value is listed as 128.2 % control, the “2. Nuclear Area (% Control)” value was determined as 94.3 % Control and the “3. Nuclear DNA Intensity (% control)” value was 130.0 % control. In test [2] (HMC3, compound 10 uM), the “1. Cell count (% control)” value came to 0.0 % control, the “2. Nuclear Area (% Control)” value was 0.0 % Control and the “3. Nuclear DNA Intensity (% control)” value came out at 0.0 % control. In addition, the “4. Phagocytosis (% control)” value in test [3] (setting [7]) is on record as 169.6 % control. In addition, in test [4] (setting [8]), the “4. Phagocytosis (% control)” value is given as 22.4 % control.
